# From US20180125073A1, “PESTICIDAL COMPOSITIONS AND RELATED METHODS” (priority 2015, published 2018)
# System: green peach aphids (Myzus persicae)
# Assay: Pesticidal activity against green peach aphid on cabbage plants after soil treatment
# Assay type: in vivo
# Settings: no surfactant added
# Description: Each tested compositions was prepared by mixing a predetermined amount of the CLOSER® SC insecticide (a sulfoxaflor concentrate having a sulfoxaflor concentration of 240 g/L) with a predetermined amount of the selected nonionic surfactant in an aqueous medium. Two nonionic surfactants were used in the study: alkyl polyglycoside AGNIQUE® PG 8107 surfactant from Cognis Corporation (C8-C10 alkyl polyglycoside with degree of polymer of 1.7), and PEG-3 tridecyl alcohol ether MAKON® TD3 surfactant from Stepan Company.
# For example, the “Sulfoxaflor at 100 ppm” composition contained about 0.043% weight of sulfoxaflor based on the total weight of the composition (i.e., 100 ppm of sulfoxaflor per one gram of final soil mixture). “Sulfoxaflor at 100 ppm+AGNIQUE®” composition contained about 0.043% weight of sulfoxaflor based on the total weight of the composition (i.e., 100 ppm of sulfoxaflor per one gram of final soil mixture), and about 0.225% weight of alkyl polyglycoside AGNIQUE® PG 8107 surfactant based on the total weight of the composition (i.e., 384 ppm per one gram of the final soil mixture; 1500 ppm per one gram of the total soil liquid).
# The imidacloprid pesticide PROVADO® 1.6 from Bayer CropScience LP (North Carolina, USA) was used as a standard commercial pesticidal composition for aphid control. The imidacloprid pesticide PROVADO® 1.6 was tested at three different loadings: 100 ppm, 25 ppm, and 6.25 ppm per gram of final soil mixture.
# In this EXAMPLE 7, water was tested as a control composition. Furthermore, an aqueous solution of alkyl polyglycoside AGNIQUE® PG 8107 surfactant and an aqueous solution of PEG-3 tridecyl alcohol ether MAKON® TD3 surfactant were tested. […]
# Each of the 1-ounce clear cups was filled with about 30 grams of the inoculated Midwest field soil having the components as shown in TABLE 7. […] The soil moisture of the Midwest field soil was about 15% as measured by Mettler LJ16 Moisture Analyzer (15 minutes and 100° C.). […]
structure (smiles),measurement,setting,value
"C[C@@H](c1ccc(C(F)(F)F)nc1)[S@@](C)(=O)=NC#N (racemic) [Sulfoxaflor, [methyl(oxo) {1-[6-(trifluoromethyl)-3-pyridyl]ethyl}-λ^6-sulfanylidene]cyanamide]",number of live GPA aphids on cabbage plant,"DAT of 21 days, loading 6.25 ppm",about 38
same,number of live GPA aphids on cabbage plant,"DAT of 21 days, loading 100 ppm per gram of final soil mixture",no live GPA aphid
same,number of live GPA aphids on cabbage plant,"DAT of 28 days, sulfoxaflor 100 ppm",no live GPA aphid
